According to patent US20100029654A1, “CARDIOVASCULAR COMPOSITIONS AND USE OF THE SAME FOR THE TREATMENT OF ALZHEIMER'S DISEASE” (MOUNT SINAI SCHOOL OF MEDICINE, priority 2006, published 2010):
Structures can show the parent of a compound that is named as a salt. Where two headings read alike, the source gives them in different places.

What was measured:
[1] = system: Aβ1-40; assay: Aβ1-40 content in conditioned medium of primary cortico-hippocampal neuron cultures from Tg2576 mice (ELISA; primary and secondary dose-response screening); assay type: cell-based, mouse; conditions: for activity at 100 µM: Mus musculus, Neuron, 24 h, drug 100 μM, read-out: Ab1-40 (% of ctl); for reduced Aβ1-40: <85% of ctl
How it was run: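 Primary cortico-hippocampal neurons from embryonic Tg2576 mice were plated at 1.0×10^5 cells per well on poly-D-lysine-coated 96-well plates in Neurobasal with 2% B27, 0.5 mM L-glutamine and 1% penicillin-streptomycin. Cultures received drug in 1% DMSO, and Aβ1-40 in the conditioned medium was measured by BioSource ELISA 24 hours after treatment, relative to vehicle controls.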

[2] = system: Aβ1-42; assay: Aβ1-42 content in conditioned medium of primary cortico-hippocampal neuron cultures from Tg2576 mice (ELISA; primary and secondary dose-response screening); assay type: cell-based, mouse; conditions: for activity at 100 µM: Mus musculus, Neuron, 24 h, drug 100 μM, read-out: Ab1-42 (% of ctl); for reducing Aβ1-42: <85% of ctl
How it was run: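 Primary cortico-hippocampal neurons from embryonic Tg2576 mouse brain were seeded on poly-D-lysine-coated 96-well plates at 1.0×10^5 cells per well in serum-free Neurobasal medium with 2% B27, 0.5 mM L-glutamine and 1% penicillin-streptomycin. For primary screening, duplicate wells received 100 μM drug (1% DMSO final). Vehicle-treated cultures served as controls, and Aβ1-42 in conditioned medium was measured by commercial ELISA.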

[3] = system: primary cortico-hippocampal neuron cultures; assay: lactate dehydrogenase (LDH) activity assay in parallel neuron cultures
Description: For in vitro treatments drugs available from “The Spectrum Collection” in stocks of 10 mM in DMSO were applied directly to cultures to the desired concentrations (final 1% DMSO); control primary neuron cultures from Tg2576 embryos were treated with vehicle resulting in a final 1% DMSO.
Cell viability was assessed using a commercial available LDH assay kit according to the manufacture's instruction (Promega).

[4] = system: primary cortico-hippocampal neuron cultures; assay: MTT in primary screening
[5] = Primary Screening, table sorted by Aβ1-40
[6] = primary screening, Tg2576 neuron cultures, table sorted by Aβ1-42
[7] = primary screening, table sorted by Aβ1-42

Compound	activity at 100 µM [1, 5] [%]	activity at 100 µM [1, 6] [%]	reduced Aβ1-40 ([1]; primary screening)	activity at 100 µM [2, 5] [%]	activity at 100 µM [2, 6] [%]	reducing Aβ1-42 ([2]; primary screening)	LDH (% of ctl) [3, 5]	LDH (% of ctl) [3, 7]	MTT (% of ctl) [4, 5]	MTT (% of ctl) [4, 7]
NS(=O)(=O)c1cc2c(cc1Cl)NC(C1CC3C=CC1C3)NS2(=O)=O (stereo not shown) [Cyclothiazide]	71.1	71.1	reduced Aβ1-40	75	75	useful in reducing Aβ1-42	110.3 % of ctl	110.3 % of ctl	97.7 % of ctl	97.7 % of ctl
CC1=NS(=O)(=O)c2cc(Cl)ccc2N1 [Diazoxide]	114	114		98.9	98.9		112.0 % of ctl	112.0 % of ctl	97.8 % of ctl	97.8 % of ctl
O=c1oc2ccccc2c(O)c1Cc1c(O)c2ccccc2oc1=O [Dicumarol]	51.3	51.3	reduced Aβ1-40	54	54	useful in reducing Aβ1-42	93.3 % of ctl	93.3 % of ctl	97.0 % of ctl	97.0 % of ctl
COc1ccc([C@@H]2Sc3ccccc3N(CCN(C)C)C(=O)[C@@H]2OC(C)=O)cc1 [Diltiazem Hydrochloride]	108	108		98.9	98.9		96.1 % of ctl	96.1 % of ctl	97.8 % of ctl	97.8 % of ctl
CC(CCc1ccc(O)cc1)NCCc1ccc(O)c(O)c1 (stereo not shown) [Dobutamine Hydrochloride]	90.1	90.1		103	103		103.1 % of ctl	103.1 % of ctl	99.5 % of ctl	99.5 % of ctl
O=c1oc2c(O)c(O)cc3c(=O)oc4c(O)c(O)cc1c4c23 [Ellagic Acid]	96.6	96.6		94	94		109.2 % of ctl	109.2 % of ctl	85.2 % of ctl	85.2 % of ctl
CCOC(=O)[C@H](CCc1ccccc1)N[C@@H](C)C(=O)N1CCC[C@H]1C(=O)O [Enalapril Maleate]	101	101		97.6	97.6		118.9 % of ctl	118.9 % of ctl	126.4 % of ctl	126.4 % of ctl
CCC(C(N)=O)c1ccccc1 (stereo not shown) [Fenbutyramide]	91.6	91.6		96.3	96.3		135.0 % of ctl	135.0 % of ctl	108.6 % of ctl	108.6 % of ctl
CC(C)OC(=O)C(C)(C)Oc1ccc(C(=O)c2ccc(Cl)cc2)cc1 [Fenofibrate]	13.9	13.9		77.7	77.7		140.0 % of ctl	140.0 % of ctl	97.5 % of ctl	97.5 % of ctl
Fc1ccc(C(c2ccc(F)cc2)N2CCN(C/C=C/c3ccccc3)CC2)cc1 [Flunarizine Hydrochloride]	42.1	42.1	reduced Aβ1-40	53.3	53.3	useful in reducing Aβ1-42	120.4 % of ctl	120.4 % of ctl	59.4 % of ctl	59.4 % of ctl
CCC(=O)O[C@@H](O[P@](=O)(CCCCc1ccccc1)CC(=O)N1C[C@H](C2CCCCC2)C[C@H]1C(=O)O)C(C)C [Fosinopril Sodium]	94.7	94.7		95	95		75.6 % of ctl	75.6 % of ctl	101.4 % of ctl	101.4 % of ctl
NS(=O)(=O)c1cc(C(=O)O)c(NCc2ccco2)cc1Cl [Furosemide]	118	118		95.7	95.7		98.2 % of ctl	98.2 % of ctl	101.0 % of ctl	101.0 % of ctl
CC(N)CCCC(C)(C)O (stereo not shown) [Heptaminol Hydrochloride]	112	112		105	105		103.4 % of ctl	103.4 % of ctl	103.4 % of ctl	103.4 % of ctl
NS(=O)(=O)c1cc2c(cc1Cl)NCNS2(=O)=O [Hydrochlorothiazide]	89.5	89.5		116	116		281.1 % of ctl	281.1 % of ctl	102.1 % of ctl	102.1 % of ctl
NS(=O)(=O)c1cc2c(cc1C(F)(F)F)NCNS2(=O)=O [Hydroflumethiazide]	92.4	92.4		90.2	90.2		99.7 % of ctl	99.7 % of ctl	98.9 % of ctl	98.9 % of ctl
CC[C@H]1CN2CC[C@H]1C[C@@H]2[C@@H](O)c1ccnc2ccc(OC)cc12 [Hydroquinidine]	96.5	96.5		121	121		102.2 % of ctl	102.2 % of ctl	103.6 % of ctl	103.6 % of ctl
CC1Cc2ccccc2N1NC(=O)c1ccc(Cl)c(S(N)(=O)=O)c1 (stereo not shown) [Indapamide]	107	107		91.3	91.3		85.3 % of ctl	85.3 % of ctl	104.2 % of ctl	104.2 % of ctl
